Read-outs that look alike come from different tables or passages of the source.
Assays:
[1] = Iodination of arachidonic acid by molecular iodine (thiosulfate titration, Example 1); format: physicochemical; conditions: 0.01N sodium thiosulfate titration
Procedure: A stock solution of 10 mg/ml arachidonic acid in ethanol was prepared. […] A control vial was prepared that had no arachidonic acid.
An iodate/iodide solution was prepared separately by adding NaIO3 (Sigma-Aldrich, St. Louis, Mo.; part number S4007-500G) and NaI (Sigma-Aldrich, St. Louis, Mo.; part number […]) to final concentrations of 3.16 and 20.55 mM, respectively, in 0.64M sodium carbonate in water.
Vials were then titrated with 0.01N sodium thiosulfate solution until the samples went from dark blue to colorless.
Since the oxidation of iodide after acidification is diffusion controlled, the reaction of iodate with iodide is essentially instantaneous and five moles of iodide reacts with each mole of iodate to form 3 moles of molecular iodine.
The ratio of iodide to iodate used in this experiment insured that there was unreacted […] present in the solution after acidification with HCl.

[2] = Iodination of arachidonic acid by molecular iodine with additional iodate (thiosulfate titration, Example 3); format: physicochemical
Procedure: A stock solution of 10 mg/ml arachidonic acid in ethanol was prepared. […] A control vial was prepared that had no arachidonic acid. An iodate/iodide solution was prepared separately by adding NaIO3 (Sigma-Aldrich, St. Louis, Mo.; part number […]) and NaI (Sigma-Aldrich, St.

[3] = cited from earlier work
[4] = male rats, subchronic administration, cited from earlier work
[5] = system: N-methyl-N-nitrosourea-induced mammary carcinogenesis; conditions: in vivo; cited from earlier work
[6] = Procedure: An iodate/iodide solution was prepared separately by adding sodium iodate (Sigma-Aldrich, St. Louis, Mo.; part number S4007-500G) and sodium iodide (Sigma Aldrich, St. Louis, Mo.; part number 383112-100G) to final concentrations of 3.16 and 20.55 mM, respectively, in 0.64M sodium carbonate in water. One mL of the iodate/iodide solution was then added to the vials followed by 100 μl of 0.5% starch indicator.
This additional sodium iodate was added to provide additional oxidant to re-oxidize any iodide that might be formed by the iodination of arachidonic acid.
Two mL of 1N HCl was added and a visual observation of the samples was recorded. Vials were then titrated with 0.01N sodium thiosulfate solution until the samples went from dark blue to colorless.

[7] = Subchronic administration to male rats, thyroid weight; format: in vivo; conditions: mammals; iodide vs molecular iodine

With CCCCC/C=C\C/C=C\C/C=C\C/C=C\CCCC(=O)O [Arachidonic Acid, (5Z,8Z,11Z,14Z)-5,8,11,14-eicosatetraenoic acid] the Thiosulfate ([1]; 0.3 mg arachidonic acid) was 1.75 mL, the Thiosulfate ([1]; 1.0 mg arachidonic acid) was 1.62 mL and the “decrease of molecular iodine observed from Sample 3 to Sample 4” value ([2]; 1 mg arachidonic acid, additional iodate) was 0.50 ∞mol. The molecular iodine reacted with ([2]; one mg arachidonic acid, Sample 2 vs Sample 1, unit of the source corrected) was 1 µmol, the systemic inflammation ([3]; bodybuilders, 1500 mg) was “may reduce systemic inflammation” and the “toxicity or safety risk” value ([3]; daily oral administration of up to 1500 mg) was “no toxicity or safety risk”. The carcinogenicity ([3]; in vivo) was “not carcinogenic”.
For II [molecular iodine], the thyroid weight ([4]; even at 100 mg/kg) is listed as “did not affect thyroid weight” and the “formation of carcinogen induced tumors” value [5] is listed as “inhibits”.
Molecule C/C=C/C=C/C(=O)O [Sorbic Acid, sorbic acid, reference compound] has a Thiosulfate ([6]; sample 2: 1 mg sorbic acid, no additional NaIO3) of 1.45 mL, a Thiosulfate ([6]; sample 4: 1 mg sorbic acid, additional NaIO3 188 ∝g) of 1.60 mL and a Thiosulfate ([2]; sample 2: 1 mg acid, no additional NaIO3) of 1.70 mL. For the same molecule, the Thiosulfate ([2]; sample 4: 1 mg acid, additional NaIO3 188 ∝g) was 2.10 mL.
For I [iodide], the “concentration affecting thyroid weight, less than for a comparable effect from molecular iodine” value [7] is listed as 10 fold, the thyroid weight ([4]; 10 mg/kg) is listed as “increased” and the “formation of carcinogen induced tumors” value [5] is listed as “not”.
